# Laboratory results from patent US8906430B2, “Use of hypericum perforatum extracts in the treatment of neuropathic pain” (Aboca S.p.A. Societa' Agricola, priority 2008, dated 2014).
# Experiments:
# [1] = tested on: oxaliplatin-induced hyperalgesia; experiment: Oxaliplatin-induced hyperalgesia, rat paw pressure test; type: in vivo; settings: oxaliplatin i.p., hypericin 0.11 mg/kg + CMC p.o., single administration
# Description: A reduction in the pain threshold was induced by administering oxaliplatin 2.4 mg/kg for 5 consecutive days for a total of 3 weeks. By the end of the treatment period, the pain perception threshold of the rats was statistically lower than that of the controls (Ref. 23). Using the same method as in Example 1, the following results were obtained by administering hypericin at the doses indicated in Table 5.
# [2] = tested on: neuropathic pain; experiment: Experimental models of neuropathic pain (summary statements); type: in vivo, rodents; settings: for Ability to reduce neuropathic pain: isolated phloroglucinol derivatives
# Description: The studies were conducted on rodents, which have always constituted a good animal model to reproduce the characteristics of human pain symptoms and predict possible remedies.
# [3] = tested on: monosodium iodoacetate-induced osteoarthritis pain; experiment: Pain caused by monosodium iodoacetate-induced osteoarthritis of the knee, rat paw pressure test; type: in vivo; settings: MIA, 0.11 mg/kg p.o.
# From the text: The reduction in the pain threshold was induced by a single administration of monoiodoacetate (MIA) into the […] of the rat (Ref. 27). [table]
# [4] = tested on: mononeuropathy induced by ligature of the sciatic nerve; experiment: Right-side mononeuropathy induced by ligature of the sciatic nerve, rat paw pressure test; type: in vivo; parameters: unit not given beside the values; settings: 0.11 mg/kg p.o.
# Description: Neuropathic pain is characterised by the development of an altered perception of pain, which is manifested as continuous spontaneous pain and hyperalgesia. In this model, the rats were anaesthetised with chloral hydrate 400 mg/kg i.p. or sodium pentobarbital 40 mg/kg i.p. The sciatic nerve was then exposed at thigh level by retracting the femoral biceps. Proximally to the trifurcation of the sciatic nerve, approx. 7 mm of nerve was released from the membranes and 4 loose ligatures were tied round the nerve, approx. 1 mm apart. In another group of animals an identical incision was made, but without the nerve ligature (sham operation). Neuropathy developed in 14 days. The tests with the potentially analgesic substances were performed on the 14th and 21st days after the operation using the paw pressure test (ref. 24).
# Using the same method as in Example 2, the following results were obtained by administering hypericin at the doses indicated in Table 6.
smiles,measurement,setting,value
"Cc1cc(O)c2c(=O)c3c(O)cc(O)c4c5c(O)cc(O)c6c(=O)c7c(O)cc(C)c8c1c2c(c34)c(c78)c65 [HYPERICIN, hypericin]",Pressure on rats' paws,[1]; 3rd week + 15 min,44.1 ± 2.8 g
same,Pressure on rats' paws,[1]; 3rd week + 30 min,55.0 ± 2.2 g
same,Pressure on rats' paws,[1]; 3rd week + 45 min,53.3 ± 2.6 g
same,Pressure on rats' paws,[1]; 3rd week + 60 min,31.3 ± 3.0 g
same,Pressure on rats' paws,[1]; 3rd week Pre-test,32.4 ± 2.0 g
same,Pressure on rats' paws,[1]; Pre-test before all treatments,63.2 ± 3.5 g
same,Activity on neuropathic pain,[2]; at a dose corresponding to its concentration in freeze-dried extracts,active
same,Rat paw pressure test,[3]; 15 min after treatment,45.9 ± 2.7
same,Rat paw pressure test,[3]; 30 min after treatment,49.7 ± 3.8
same,Rat paw pressure test,[3]; 45 min after treatment,42.8 ± 3.9
same,Rat paw pressure test,[3]; 60 min after treatment,31.7 ± 3.5
same,Rat paw pressure test,[3]; Pre-test,23.4 ± 3.3
same,Rat paw pressure test (Paw),"[4]; paw L, 4 min after treatment",24.8 ± 3.9
same,Rat paw pressure test (Paw),"[4]; paw L, 15 min after treatment",23.8 ± 3.3
same,Rat paw pressure test (Paw),"[4]; paw L, 30 min after treatment",22.7 ± 2.1
same,Rat paw pressure test (Paw),"[4]; paw L, 60 min after treatment",21.5 ± 3.0
same,Rat paw pressure test (Paw),"[4]; paw L, before treatment",21.6 ± 2.7
same,Rat paw pressure test (Paw),"[4]; paw R, 4 min after treatment",41.6 ± 2.7
same,Rat paw pressure test (Paw),"[4]; paw R, 15 min after treatment",28.1 ± 1.2
same,Rat paw pressure test (Paw),"[4]; paw R, 30 min after treatment",43.7 ± 2.0
same,Rat paw pressure test (Paw),"[4]; paw R, 60 min after treatment",25.9 ± 2.2
same,Rat paw pressure test (Paw),"[4]; paw R, before treatment",24.3 ± 4.6
CCC(C)C(=O)[C@@]12C(=O)C(CC=C(C)C)=C(O)[C@@](CC=C(C)C)(C[C@H](CC=C(C)C)[C@@]1(C)CCC=C(C)C)C2=O (stereo partly drawn) [adihyperforin],Ability to reduce neuropathic pain,[2],unable to reduce neuropathic pain
CC(C)=CCC[C@]1(C)[C@@H](CC=C(C)C)C[C@@]2(CC=C(C)C)C(=O)[C@]1(C(=O)C(C)C)C(=O)C(CC=C(C)C)=C2O [hyperforin],Ability to reduce neuropathic pain,[2],unable to reduce neuropathic pain
